For 1 compound, AUC0-t, AUC0-α and Cmax results are on record in patent US20100291225A1, “Stabilized Sustained Release Composition of Bupropion Hydrochloride and Process For Preparing the Same” (priority 2008, published 2010).

The conditions of this data set: in vivo, po, 150 mg. On the procedure: This example describes an in-vivo study, which measured plasma concentrations of bupropion achieved after oral administration of reference Wellbutrin® SR tablet and test bupropion hydrochloride sustained release tablets of example 1. The in-vivo study was carried out on 12+2 standby healthy adult subjects under fasting conditions. Plasma bupropion was determined over a 120 hour period, after single oral administration of the respective formulations. Each subject was administered each of the two formulations in cross over design separated by a washout period of 14 days between administrations of the two formulations. Plasma levels were measured at predetermined times utilizing a validated assay method employing LC-MS/MS instrumentation. Plasma pharmacokinetic parameters were evaluated using commercially available software WinNonlin version 5.0.1 or higher. The statistical analysis was performed using SAS® package (SAS® Institute Inc., USA version 9.1 or higher). Values derived at each time point and to determine the area under the curve (AUC) and maximum concentration (Cmax) afforded by Wellbutrin®SR and the test formulation.

Regarding `CC(NC(C)(C)C)C(=O)c1cccc(Cl)c1` (stereo not drawn) [Wellbutrin ®SR], the AUC0-t was 894.88 ngh/ml; the AUC0-α is given as 951.251 ngh/ml; the Cmax (as a rule, the highest concentration seen after dosing) is 111.178 ng/mL.
